Test results taken from patent publication US20080050444A1, “Pharmaceutical compositions of ilaparazole” (priority 2005, published 2008).

Key:
[1] = acid or neutral conditions; known in the art; cited from earlier work
[2] = Particle size distribution of ilaprazole lots (Sympatec HELOS, low-angle laser light scattering); type: physicochemical; settings: nitrogen pressure 2 bar
Procedure: The two lots of ilaprazole active ingredient were analyzed using a Sympatec HELOS particle size system with a RODOS dry powder disperser. This instrument operates using low-angle laser light scattering analyzed by Fraunhofer diffraction theory. Aliquots of approximately 0.5 g were fed into the instrument from a vibrating tray into a jet of nitrogen gas. After flowing through an interaction tube, an aerosol was formed in the path of a laser beam. The angle and intensity of diffracted light was then measured to determine the particle size distribution. As part of the method development, the particle size distribution was measured as a function of nitrogen gas pressure, and a pressure of 2 bar was determined to adequately break apart loosely adhered particles without significant milling of the sample. The results are shown below in Table 1 and in FIG. 1. The particle sizes are listed as x10, x50 and x90, the diameter where 10%, 50% and 90% of the volume of the material is in a particle smaller than the listed size.

COc1ccnc(C[S+]([O-])c2nc3cc(-n4cccc4)ccc3[nH]2)c1C (stereo not shown) [ilaprazole, 2-[[(4-methoxy-3-methyl)-2-pyridyl]methylsufinyl]-5-(1H-pyrrol-1-yl)benzimidazole]
stability [1]: unstable under acid or neutral conditions

COc1ccnc(C[S+]([O-])c2nc3cc(-n4cccc4)ccc3[nH]2)c1C (stereo not shown) [Lot A, ilaprazole]
x10 Mean ([2]; diameter where 10% of the volume of the material is in a particle smaller than the listed size): 1.01 μm | x50 Mean ([2]; diameter where 50% of the volume of the material is in a particle smaller than the listed size): 3.74 μm | x90 Mean ([2]; diameter where 90% of the volume of the material is in a particle smaller than the listed size): 14.79 μm
